# Data taken from ChEMBL document CHEMBL4680133, “Novel nitroimidazole derivatives evaluated for their trypanocidal, cytotoxic, and genotoxic activities” (Eur J Med Chem, 2020).
# Tests used:
# [1] = Genotoxicity in human HepG2 assessed as survival at 100 ug/ml measured after 24 hrs by micronucleus test (reference value: 100%); type: toxicity, cell-based; details: HepG2 cells, at 100 µg/mL, read-out: Survival
# [2] = test system: HepG2; assay: Genotoxicity in human HepG2 assessed as mitotic index at 100 ug/ml measured after 24 hrs by micronucleus test (reference value: 61 to 108); type: toxicity, cell-based; details: hepg2, 24 h, dose 100 µg/ml
# [3] = test system: HepG2; assay: Genotoxicity in human HepG2 assessed as number of micronucleated cells at 100 ug/ml measured after 24 hrs by micronucleus test (reference value: 14 to 18); type: toxicity, cell-based; details: hepg2, 24 h, dose 100 µg/ml
# [4] = test system: HepG2; assay: Genotoxicity in human HepG2 assessed as mitotic index at 3760 uM measured after 24 hrs by micronucleus test (reference value: 61 to 108); type: toxicity, cell-based; details: hepg2, 24 h
# [5] = Mutagenicity in Salmonella typhimurium TA97 measured after 20 mins in presence of S9 fraction by microsome assay; type: toxicity, subcellular; details: salmonella enterica subsp. enterica serovar typhimurium, s9, 20 min, dose 5-100 µg
# [6] = Mutagenicity in Salmonella typhimurium TA102 measured after 20 mins in presence of S9 fraction by microsome assay; type: toxicity, subcellular; details: salmonella enterica subsp. enterica serovar typhimurium, s9, 20 min, dose 5-100 µg
# [7] = Mutagenicity in Salmonella typhimurium TA97 assessed as revertant/ug measured after 20 mins in presence of S9 fraction by microsome assay; type: toxicity, subcellular; details: salmonella enterica subsp. enterica serovar typhimurium, s9, 20 min
# [8] = Mutagenicity in Salmonella typhimurium TA97 measured after 20 mins in absence of S9 fraction by microsome assay; type: toxicity; details: salmonella enterica subsp. enterica serovar typhimurium, microsomes, dose 5-100 µg
# [9] = Mutagenicity in Salmonella typhimurium TA97 assessed as revertant/ug measured after 20 mins in absence of S9 fraction by microsome assay; type: toxicity; details: salmonella enterica subsp. enterica serovar typhimurium, microsomes
# [10] = Mutagenicity in Salmonella typhimurium TA98 measured after 20 mins in absence of S9 fraction by microsome assay; type: toxicity; details: salmonella enterica subsp. enterica serovar typhimurium, microsomes, dose 5-100 µg
# [11] = Mutagenicity in Salmonella typhimurium TA98 measured after 20 mins in presence of S9 fraction by microsome assay; type: toxicity, subcellular; details: salmonella enterica subsp. enterica serovar typhimurium, s9, 20 min, dose 5-100 µg
# [12] = test system: RAW264.7; assay: Genotoxicity in mouse RAW264.7 cells assessed as mitotic index at 188 uM measured after 24 hrs by micronucleus test (reference value: 40 to 249); type: toxicity, cell-based; details: raw264.7, 24 h
# [13] = Mutagenicity in Salmonella typhimurium YG1024 at 5 to 100 ug/plate after 20 mins by microsome assay; type: toxicity; details: salmonella enterica subsp. enterica serovar typhimurium, microsomes, dose 5-100 µg
# [14] = test system: HepG2; assay: Genotoxicity in human HepG2 assessed as mitotic index at 376 uM measured after 24 hrs by micronucleus test (reference value: 61 to 108); type: toxicity, cell-based; details: hepg2, 24 h
# [15] = test system: RAW264.7; assay: Genotoxicity in mouse RAW264.7 cells assessed as number of micronucleated cells at 1880 uM measured after 24 hrs by micronucleus test (reference value: 12 to 15); type: toxicity, cell-based; details: raw264.7, 24 h
# [16] = Genotoxicity in human HepG2 assessed as survival at 1880 uM measured after 24 hrs by micronucleus test (reference value: 100%); type: toxicity, cell-based; details: HepG2 cells, read-out: Survival
# [17] = Mutagenicity in Salmonella typhimurium TA100 assessed as revertant/ug measured after 20 mins in presence of S9 fraction by microsome assay; type: toxicity, subcellular; details: salmonella enterica subsp. enterica serovar typhimurium, s9, 20 min
# [18] = Mutagenicity in Salmonella typhimurium TA100 measured after 20 mins in presence of S9 fraction by microsome assay; type: toxicity, subcellular; details: salmonella enterica subsp. enterica serovar typhimurium, s9, 20 min, dose 5-100 µg
# [19] = Selectivity index, ratio of GI50 for mouse RAW264.7 cells assessed as reduction in cell viability measured after 24 hrs by WST1 assay to IC50 for antitrypanosomal activity against bloodstream form of Trypanosoma cruzi Y trypomastigotes infected in African green monkey Vero cells; type: toxicity; details: read-out: Selectivity Index
# [20] = test system: HepG2; assay: Genotoxicity in human HepG2 assessed as number of micronucleated cells at 1880 uM measured after 24 hrs by micronucleus test (reference value: 14 to 18); type: toxicity, cell-based; details: hepg2, 24 h
# [21] = Genotoxicity in human HepG2 assessed as survival at 376 uM measured after 24 hrs by micronucleus test (reference value: 100%); type: toxicity, cell-based; details: HepG2 cells, read-out: Survival
# [22] = Mutagenicity in Salmonella typhimurium TA100 measured after 20 mins in absence of S9 fraction by microsome assay; type: toxicity; details: salmonella enterica subsp. enterica serovar typhimurium, microsomes, dose 5-100 µg
# [23] = Genotoxicity in mouse RAW264.7 cells assessed as survival at 188 uM measured after 24 hrs by micronucleus test (reference value: 100%); type: toxicity, cell-based; details: read-out: Survival
# [24] = Genotoxicity in mouse RAW264.7 cells assessed as survival at 376 uM measured after 24 hrs by micronucleus test (reference value: 100%); type: toxicity, cell-based; details: read-out: Survival
# [25] = test system: HepG2; assay: Genotoxicity in human HepG2 assessed as number of micronucleated cells at 188 uM measured after 24 hrs by micronucleus test (reference value: 14 to 18); type: toxicity, cell-based; details: hepg2, 24 h
# [26] = test system: RAW264.7; assay: Cytotoxicity against mouse RAW264.7 cells at 18.8 to 376 uM measured after 24 hrs by LDH assay; type: cell-based; details: raw264.7, 24 h, dose 18.8-376 µM
# [27] = test system: HepG2; assay: Genotoxicity in human HepG2 assessed as number of micronucleated cells at 3760 uM measured after 24 hrs by micronucleus test (reference value: 14 to 18); type: toxicity, cell-based; details: hepg2, 24 h
# [28] = test system: RAW264.7; assay: Genotoxicity in mouse RAW264.7 cells assessed as mitotic index at 3760 uM measured after 24 hrs by micronucleus test (reference value: 40 to 249); type: toxicity, cell-based; details: raw264.7, 24 h
# [29] = Cytotoxicity against mouse RAW264.7 cells assessed as reduction in cell viability measured after 24 hrs by WST1 assay; type: cell-based
# [30] = Mutagenicity in Salmonella typhimurium TA100 assessed as revertant/ug measured after 20 mins in absence of S9 fraction by microsome assay; type: toxicity; details: salmonella enterica subsp. enterica serovar typhimurium, microsomes
# [31] = Genotoxicity in mouse RAW264.7 cells assessed as survival at 3760 uM measured after 24 hrs by micronucleus test (reference value: 100%); type: toxicity, cell-based; details: read-out: Survival
# [32] = Mutagenicity in Salmonella typhimurium YG1021 at 5 to 100 ug/plate after 20 mins by microsome assay; type: toxicity; details: salmonella enterica subsp. enterica serovar typhimurium, microsomes
# [33] = test system: RAW264.7; assay: Genotoxicity in mouse RAW264.7 cells assessed as mitotic index at 1880 uM measured after 24 hrs by micronucleus test (reference value: 40 to 249); type: toxicity, cell-based; details: raw264.7, 24 h
# [34] = test system: HepG2; assay: Genotoxicity in human HepG2 assessed as mitotic index at 1880 uM measured after 24 hrs by micronucleus test (reference value: 61 to 108); type: toxicity, cell-based; details: hepg2, 24 h
# [35] = test system: RAW264.7; assay: Genotoxicity in mouse RAW264.7 cells assessed as mitotic index at 376 uM measured after 24 hrs by micronucleus test (reference value: 40 to 249); type: toxicity, cell-based; details: raw264.7, 24 h
# [36] = Mutagenicity in Salmonella typhimurium TA102 measured after 20 mins in absence of S9 fraction by microsome assay; type: toxicity; details: salmonella enterica subsp. enterica serovar typhimurium, microsomes, dose 5-100 µg
# [37] = test system: HepG2; assay: Genotoxicity in human HepG2 assessed as mitotic index at 188 uM measured after 24 hrs by micronucleus test (reference value: 61 to 108); type: toxicity, cell-based; details: hepg2, 24 h
# [38] = Genotoxicity in mouse RAW264.7 cells assessed as survival at 1880 uM measured after 24 hrs by micronucleus test (reference value: 100%); type: toxicity, cell-based; details: read-out: Survival
# [39] = Selectivity index, ratio of GI50 for mouse RAW264.7 cells assessed as reduction in cell viability measured after 24 hrs by WST1 assay to IC50 for antitrypanosomal activity against Trypanosoma cruzi Y axenic amastigotes infected in African green monkey Vero cells; type: toxicity; details: read-out: Selectivity Index
# [40] = Toxicity in Salmonella typhimurium YG1024 at 5 to 100 ug/plate after 20 mins by colony counting method; details: salmonella enterica subsp. enterica serovar typhimurium, dose 5-100 µg
# [41] = Cytotoxicity against human HepG2 cells assessed as reduction in cell viability measured after 24 hrs by WST1 assay; type: cell-based
# [42] = test system: RAW264.7; assay: Genotoxicity in mouse RAW264.7 cells assessed as number of micronucleated cells at 188 uM measured after 24 hrs by micronucleus test (reference value: 12 to 15); type: toxicity, cell-based; details: raw264.7, 24 h
# [43] = Toxicity in Salmonella typhimurium YG1021 at 5 to 100 ug/plate after 20 mins by colony counting method; details: salmonella enterica subsp. enterica serovar typhimurium, dose 5-100 µg
# [44] = test system: RAW264.7; assay: Genotoxicity in mouse RAW264.7 cells assessed as number of micronucleated cells at 3760 uM measured after 24 hrs by micronucleus test (reference value: 12 to 15); type: toxicity, cell-based; details: raw264.7, 24 h
# [45] = Genotoxicity in human HepG2 assessed as survival at 3760 uM measured after 24 hrs by micronucleus test (reference value: 100%); type: toxicity, cell-based; details: HepG2 cells, read-out: Survival
# [46] = test system: RAW264.7; assay: Genotoxicity in mouse RAW264.7 cells assessed as number of micronucleated cells at 376 uM measured after 24 hrs by micronucleus test (reference value: 12 to 15); type: toxicity, cell-based; details: raw264.7, 24 h
# [47] = test system: Trypanosoma cruzi; assay: Antitrypanosomal activity against bloodstream form of Trypanosoma cruzi Y trypomastigotes infected in African green monkey Vero cells assessed as increase in parasite lysis measured after 24 hrs by Neubauer chamber method; type: functional, organism-based
# [48] = Selectivity index, ratio of GI50 for human HepG2 cells assessed as reduction in cell viability measured after 24 hrs by WST1 assay to IC50 for antitrypanosomal activity against bloodstream form of Trypanosoma cruzi Y trypomastigotes infected in African green monkey Vero cells; type: toxicity; details: read-out: Selectivity Index
# [49] = Genotoxicity in human HepG2 assessed as survival at 188 uM measured after 24 hrs by micronucleus test (reference value: 100%); type: toxicity, cell-based; details: HepG2 cells, read-out: Survival
# [50] = test system: Trypanosoma cruzi; assay: Antitrypanosomal activity against Trypanosoma cruzi Y axenic amastigotes infected in African green monkey Vero cells after 24 hrs by MTT assay; type: functional, organism-based
# [51] = test system: HepG2; assay: Cytotoxicity against human HepG2 cells at 376 uM measured after 24 hrs by LDH assay; type: cell-based; details: hepg2, 24 h
# [52] = test system: HepG2; assay: Genotoxicity in human HepG2 assessed as number of micronucleated cells at 376 uM measured after 24 hrs by micronucleus test (reference value: 14 to 18); type: toxicity, cell-based; details: hepg2, 24 h
# [53] = Selectivity index, ratio of GI50 for human HepG2 cells assessed as reduction in cell viability measured after 24 hrs by WST1 assay to IC50 for antitrypanosomal activity against Trypanosoma cruzi Y axenic amastigotes infected in African green monkey Vero cells; type: toxicity; details: read-out: Selectivity Index
compound,measurement,setting,value
c1ccc2c(c1)cc1ccc3cccc4ccc2c1c34 [BENZO[DEF]CHRYSENE],"viability at 24 h, 100 ug/ml",[1],99%
same,Activity_index,[2],57
same,Activity,[3],31
CCOC(=O)c1cn(-c2c([N+](=O)[O-])ncn2C)nn1,Activity_index,[4],52
same,Activity,[5],Toxic
same,Activity,[6],Toxic
same,Activity,[7],0.714 µg
same,Activity,[8],Toxic
same,Activity,[9],2.19 revertants/µg
same,Activity,[10],Non-Toxic
same,Activity,[11],Non-Toxic
same,Activity_index,[12],58
same,Activity,[13],Non-Toxic
same,Activity_index,[14],50
same,Activity,[15],13
same,"viability at 24 h, 1880 µM",[16],97%
same,Activity,[17],3.36 revertants/µg
same,Activity,[18],Toxic
same,selectivity ratio at 24 h,[19],> 8.3
same,Activity,[20],32
same,"viability at 24 h, 376 µM",[21],99%
same,Activity,[22],Toxic
same,"viability at 24 h, 188 µM",[23],99%
same,"viability at 24 h, 376 µM",[24],99%
same,Activity,[25],17
same,Activity,[26],Non-Toxic
same,Activity,[27],35
same,Activity_index,[28],78
same,GI50 at 24 h,[29],> 376 µM
same,Activity,[30],3.54 revertants/µg
same,"viability at 24 h, 3760 µM",[31],90%
same,Activity,[32],Non-Toxic
same,Activity_index,[33],100
same,Activity_index,[34],60
same,Activity_index,[35],80
same,Activity,[36],Toxic
same,Activity_index,[37],55
same,"viability at 24 h, 1880 µM",[38],95%
same,selectivity ratio at 24 h,[39],> 0.95
same,Activity,[40],Toxic
same,GI50 at 24 h,[41],> 376 µM
same,Activity,[42],11
same,Activity,[43],Toxic
same,Activity,[44],13
same,"viability at 24 h, 3760 µM",[45],90%
same,Activity,[46],10
same,IC50,[47],45.3 µM
same,selectivity ratio at 24 h,[48],> 8.3
same,"viability at 24 h, 188 µM",[49],99%
same,IC50,[50],393 µM
same,Activity,[51],Toxic
same,Activity,[52],21
same,selectivity ratio at 24 h,[53],> 0.95
CCCCCc1cn(-c2c([N+](=O)[O-])ncn2C)nn1,IC50,[47],54.3 µM
